test system: Schistosoma mansoni; experiment: High throughput screening of compounds against Schistosoma mansoni motility; format: functional; parameters: dose or concentration left out as unconfirmed; conditions: not given

SMILES | Percent Effect
CCc1cc(=O)[nH]c2nnc(SCC(=O)OC)n12 | -72.76%
Cc1cnc2c(c1NCc1ccncc1)c(=O)n(C)c(=O)n2C | -90.48%
CC1CCN(S(=O)(=O)c2cccn(CC(=O)NC3CCCC3)c2=O)CC1 | -45%
CCCc1nnsc1C(=O)NCC1CCN(S(C)(=O)=O)CC1 | -25.98%
COCC(C)(O)CNC(=O)COc1ccccc1OC (stereo unspecified) | -28.83%
O=C(c1ccc(=O)[nH]n1)N1CC(c2nc(Cc3ccccc3)no2)C1 | -36.12%
O=C(NCC1CCN(C(=O)c2ccoc2)CC1)c1ccccc1Br | -0.2634%
CC(=O)NCCN1CCC(c2cccs2)CC1 | -65.41%
O=C(NCCN1CCC(c2cccs2)CC1)c1ccccc1C(F)(F)F | 2.003%
COc1ccccc1OCC(=O)NCC(O)(c1ccccc1)C1CC1 (stereo unspecified) | -13.46%
COc1ccccc1NC(=O)NCC(O)(c1ccccc1)C1CC1 (stereo unspecified) | 57.61%
O=S(=O)(NCC1(O)CCOc2ccccc21)c1cccs1 (stereo unspecified) | -21.06%
Cc1ccc(S(=O)(=O)NC2CNC(=O)C2)cc1C (stereo unspecified) | -73.52%
Cn1c(C(F)(F)F)nn(CCNC(=O)c2cnc3ccccc3n2)c1=O | -7.141%
COC(=O)c1sccc1S(=O)(=O)N1CCC(Oc2ncccc2Cl)CC1 | -59.58%
CC(=O)N1CCC(Oc2ccc(Cl)cn2)CC1 | -33.97%
CC(=O)N1CCC(Oc2ccc(C#N)cn2)CC1 | -36.18%
Cc1cnc2n(c1=O)CC(C(=O)NC1CC1)CS2 (stereo unspecified) | -61.59%
Cn1cnnc1S(=O)(=O)C1CCN(S(=O)(=O)c2c(Cl)cccc2Cl)CC1 | -2.116%
Cn1cnc(S(=O)(=O)N2CCCC2)c1Cl | -11.59%
CCc1nnc2n1CCN(C(=O)c1csc(-c3cnn(C)c3)n1)C2 | -4.866%
CS(=O)(=O)CCSc1cccc(C#N)c1 | -35.13%
Cc1nc(C2CCCN(C(=O)c3scnc3C)C2)no1 (stereo unspecified) | 18.51%
CCc1nc(CN2CCCN(Cc3cnn(C)c3)CC2)no1 | -82.4%
CC(NC(=O)C1=NN(C)C(=O)CC1)c1ccc(F)cc1F (stereo unspecified) | -36.47%
CC(C)COC(C)C(=O)N1CCN(S(C)(=O)=O)CC1 (stereo unspecified) | -53.15%

SMILES | Percent Effect
CN(C)S(=O)(=O)N1CCN(c2nccc(C(F)(F)F)n2)CC1 | -52.05%
O=C(c1cc(Cl)c2c(c1)OCO2)N1CCN(c2nccs2)CC1 | -51.67%
O=C(NCCCn1cccn1)C1(c2ccc(F)cc2)CC1 | 23.22%
Cc1cccc(C2(C(=O)NCCCn3cccn3)CC2)c1 | -39.94%
Cc1nn(C)c(N(C)C)c1CNCC(O)c1ccccc1 (stereo unspecified) | -48.71%
Cc1nc(C(C)(C)NC(=O)Nc2ccccc2)no1 | -55.91%
CCCc1cc(NC2CCc3ncnn3C2)n2ncnc2n1 (stereo unspecified) | -6.308%
CC(C#N)CSc1ccccc1NCC(=O)Nc1ccc(F)cc1 (stereo unspecified) | 55.09%
Cc1cnn(CC2CCCN2Cc2coc(-c3cccs3)n2)c1 (stereo unspecified) | -52.32%
COc1ccc(NC(C)C(=O)N2CCN(c3ncccn3)CC2)cn1 (stereo unspecified) | -56.07%
CC(C)(C)C(=O)NCCC(=O)NS(=O)(=O)c1ccc2c(c1)OCCO2 | -42.92%
COCC(NC(=O)c1cnn(C)c1)c1cccc(C(F)(F)F)c1 (stereo unspecified) | -48.05%
CCn1nc2c(cc1=O)CN(Cc1nc(N)c3ccccc3n1)CC2 | -40.99%
CN(CCC(F)(F)F)C(=O)C1CCCN1C(=O)OC(C)(C)C (stereo unspecified) | -26.39%
CCc1ncc2c(n1)CN(Cc1nnc(C)o1)CC2 | -12.75%
Cc1nc(CN2CCc3cncnc3C2)oc1C | -26.27%
CCc1nnc2n1CC(CNCc1ccncc1)CC2 (stereo unspecified) | -67.25%
COc1ccc(CN(C)C(=O)CCc2c(C)nc(C)[nH]c2=O)cc1OC | -19.42%
CC1CCCN(CCNC(=O)c2cncnc2C(C)C)C1 (stereo unspecified) | -12.57%
Cc1ncc(CNC(=O)Nc2cc(C(F)(F)F)c[nH]c2=O)s1 | -39.38%
Cc1nc(-c2ccsc2)ccc1C(=O)O | -19.43%
Cc1nccn1-c1cc(CNC(=O)C(C)(C)C)ccn1 | -28.12%
CCCOc1cc(C)ccc1NC(=O)NCCC(=O)N(C)C | -17.12%
CCCOc1ccc(NC(=O)NCCC(=O)N(C)C)cc1Cl | -22.9%
O=C(CCc1nccs1)N1CCCC(N2CCNC2=O)C1 (stereo unspecified) | -31.05%
CN(C)C(=O)C1CCCN1CCCNC(=O)c1ccccc1F (stereo unspecified) | -45.94%

SMILES | Percent Effect
CN(C)C(CNC(=O)c1cccc(-n2cnnn2)c1)c1ccccc1Cl (stereo unspecified) | 53.46%
CCc1ccc(C(=O)Nc2ccc(CC3CC(=O)NC3=O)cc2)cc1 (stereo unspecified) | -47.76%
Cc1cccc(N2CCC(NC(=O)CCCc3cccs3)CC2)n1 | -13.77%
Cc1cc(C)n(CC2CCCN2C(=O)c2ccc3[nH]nnc3c2)n1 (stereo unspecified) | -6.294%
CC(C)S(=O)(=O)NCC1CCCN(C(=O)c2ccc3c(c2)CCC3)C1 (stereo unspecified) | -22.55%
CC1CN(C)c2ccccc2CN1C(=O)CSc1ccncc1 (stereo unspecified) | 7.617%
Cc1nc(C)n(CC2CN(CCc3ccncc3)CCO2)n1 (stereo unspecified) | -26.46%
Cc1nsc(N2CCCN(c3nc(C4CC4)ns3)CC2)n1 | -32.57%
Cc1csc(N2CCN(CCc3ccccn3)CC2C)n1 (stereo unspecified) | -16.94%
COCCCC1(CO)CCCN(CCc2ccccc2)C1 (stereo unspecified) | -47.32%
Cc1noc(C)c1CCC(=O)N1CCN(CCn2cncn2)CC1 | -8.408%
Cc1cncc(C(=O)N2CCCC(C(=O)CCc3ccccc3)C2)c1 (stereo unspecified) | -9.118%
Cc1cc(C[C@@H]2COC[C@@H]2NC(=O)Cn2c(=O)oc3ccccc32)on1 | -26.12%
O=C(CCCc1ccc(F)cc1)N1C[C@@H](CN2CCOCC2)[C@@H](CO)C1 | -22.43%
CN(C)C(=O)N1C[C@@H]2CC[C@H](C1)N(Cc1ccc3nsnc3c1)C2 | -20.59%
O=C(c1cccnc1)N1C[C@@H]2CC[C@H](C1)N(Cc1cc(F)ccc1F)C2 | -34.82%
Cc1cnccc1N1CCCN(C(=O)CCCS(N)(=O)=O)CC1 | -57.05%
CC[C@@]1(O)CCN(C(=O)c2ccc(-c3cccc(F)c3)cc2)C[C@H]1O | 16.9%
CCOCCC(=O)N1CCCC(c2ncc[nH]2)C1 (stereo unspecified) | -61.02%
CCn1c(N)nc2cc(C(=O)NCCc3sccc3C)cnc21 | -77.79%
CC(=O)NCC1CCN(CC2CCOc3ccccc3C2)CC1 (stereo unspecified) | -62.7%
CCc1nnc(CN(C)c2nc(C3CCCC3)nc3c2cnn3C)o1 | 1.111%
CCC(=O)N1CCC2(CC1)c1nc[nH]c1CCN2S(C)(=O)=O | -32.51%
CCSCC(C)NCc1nncn1C1CCCCC1 (stereo unspecified) | 1.244%
Cn1ncc2c(NCCOc3ccc(F)cc3)nc(C3CCCC3)nc21 | 106.6%
O=C(c1ccc[nH]1)N1CCC(c2nccn2Cc2ccncc2)CC1 | -12.18%

SMILES | Percent Effect
Fc1ccccc1-c1noc2c1CN(CC1CC1)CC2 | -95.25%
CN(CCCc1cnn(C)c1)C(=O)C1COc2ccccc2C1 (stereo unspecified) | -70.43%
CSCC(=O)N1C[C@H]2CC[C@@H]1CN(Cc1ccccc1)C2 | 13.06%
Cc1cccnc1CN1CCC(c2nnc(Cn3cccn3)n2C)CC1 | -11.55%
CCn1c(CN(C)C)nnc1C1CCN(c2ccnc(C)c2)CC1 | 3.943%
Cc1ccsc1CN(CCN(C)C)Cc1ccccn1 | -19.12%
O=C(c1cccnc1)N1C[C@@H]2CC[C@H](C1)N(Cc1ncc[nH]1)C2 | -27.62%
COC(=O)c1cc(OCC2CCC2)cc(C(=O)N[C@H]2CC[C@H](O)CC2)c1 | -76.62%
COCc1cc(NCc2cc(F)ccc2F)n2nccc2n1 | -61.56%
Cc1nc[nH]c1-c1nc2cc(S(=O)(=O)N3CCCC3)ccc2n1C | -57.95%
C[C@@H]1CN(C2(C(=O)N3CCOCC3)Cc3ccccc3C2)C[C@H](C)O1 | 12.59%
COc1ccc(OC)c(-c2nc(CN(C)Cc3nncn3C)c(C)o2)c1 | -42.05%
CNc1nc(C(=O)N2CCCC(c3nccn3CC3CCC3)C2)cs1 (stereo unspecified) | -15.23%
CCCNCC1(O)CCCN(Cc2cccc(C)c2)C1=O (stereo unspecified) | -43.91%
O=C(CCCc1cn[nH]c1)N1CCOCC(O)C1 (stereo unspecified) | -19.59%
Cc1cc(C(=O)N2CCC(c3nccn3CCCN(C)C)CC2)no1 | -19.46%
CC(C)(C)c1ccn(C2(C(=O)O)CCN(c3nccc(N)n3)CC2)n1 | 14.42%
COC(=O)c1cc(OCC2CCC2)cc(C(=O)N[C@@H]2CNCC[C@H]2O)c1 | -27.72%
COc1ccc(-n2nnc(C(=O)NC(C)C)c2C2CC2)cc1 | 0.8394%
CCC(=O)N1CCC(c2nnc(Cn3cncn3)n2C2CC2)CC1 | -42.58%
O=C(NC[C@@H]1CCCN1)c1cc(COc2cccc(C(F)(F)F)c2)[nH]n1 | 73.28%
CSc1ccccc1CN1CCn2nc(CNC(C)=O)cc2C1 | -11.64%
CCC(O)CNC(=O)c1coc(COc2ccc3sc(C)nc3c2)n1 (stereo unspecified) | -24.85%

target: ClpP1P2 (Mycobacterium tuberculosis (strain ATCC 25618 / H37Rv), UniProt P9WPC3+P9WPC5); experiment: in vitro assay to detect presence of AMC directly proportional to the activity of ClpP1P2. GHDDI collaboration.; format: functional; conditions: not given
Sequence (P9WPC5 whole entry): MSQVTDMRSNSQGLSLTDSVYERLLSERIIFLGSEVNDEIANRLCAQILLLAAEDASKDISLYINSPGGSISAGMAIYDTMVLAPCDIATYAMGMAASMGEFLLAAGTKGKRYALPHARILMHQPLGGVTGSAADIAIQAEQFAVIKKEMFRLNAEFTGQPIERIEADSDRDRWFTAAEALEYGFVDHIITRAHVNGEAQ
Sequence (P9WPC3 whole entry): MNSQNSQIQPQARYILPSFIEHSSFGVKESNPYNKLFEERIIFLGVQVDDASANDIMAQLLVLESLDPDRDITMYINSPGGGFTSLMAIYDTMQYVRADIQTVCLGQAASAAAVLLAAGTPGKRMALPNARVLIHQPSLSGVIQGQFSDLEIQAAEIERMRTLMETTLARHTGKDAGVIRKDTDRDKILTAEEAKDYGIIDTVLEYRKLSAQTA

SMILES | IC50
Cc1cc(C)c2cc(CNC3CCCCC3)c3nn(C)c(=O)n3c2c1 | > 100 µM
Cc1cc2nc(C(C)C)cc(N(C)CC3CCN(C(C)C)C3)n2n1 (stereo unspecified) | > 100 µM
CC(C)OCc1ccc(CNc2cncc(-n3cccn3)n2)cc1 | > 100 µM
COCCN1CCC(CNC(=O)C2(c3ccc(Br)cc3)CCCC2)C1 (stereo unspecified) | > 100 µM
CCn1cncc1CN1CCN(CC2(c3ccc(C)cc3)CC2)CC1.Cl | > 100 µM

test system: not listed separately; experiment: microbe, parasite or virus in culture; conditions: Mycobacterium tuberculosis, 96 h, read-out: pIC50 (converted)

SMILES | IC50
Cc1cc2nc(C(C)C)cc(N(C)CC3CCN(C(C)C)C3)n2n1 (stereo unspecified) | > 50.1 µM
CC(C)OCc1ccc(CNc2cncc(-n3cccn3)n2)cc1 | 17 µM

test system: Plasmodium falciparum; experiment: Calibr Malaria Delayed Death Assay SOP; format: functional, organism-based; conditions: not given

SMILES | pIC50
Cc1cc(C)c2cc(CNC3CCCCC3)c3nn(C)c(=O)n3c2c1 | 5.941
COCCN1CCC(CNC(=O)C2(c3ccc(Br)cc3)CCCC2)C1 (stereo unspecified) | 6.366
CCn1cncc1CN1CCN(CC2(c3ccc(C)cc3)CC2)CC1.Cl | 6

same assay, conditions: Plasmodium falciparum

SMILES | IC50
Cc1cc(C)c2cc(CNC3CCCCC3)c3nn(C)c(=O)n3c2c1 | 1040 nM
COCCN1CCC(CNC(=O)C2(c3ccc(Br)cc3)CCCC2)C1 (stereo unspecified) | 541 nM
CCn1cncc1CN1CCN(CC2(c3ccc(C)cc3)CC2)CC1.Cl | 1110 nM

test system: not listed separately; experiment: microbe, parasite or virus in culture; conditions: Mycobacterium tuberculosis, 72 h, read-out: pIC50 (converted)

SMILES | IC50
Cc1cc2nc(C(C)C)cc(N(C)CC3CCN(C(C)C)C3)n2n1 (stereo unspecified) | > 50.1 µM
CC(C)OCc1ccc(CNc2cncc(-n3cccn3)n2)cc1 | > 50.1 µM

Source: ChEMBL document CHEMBL3988442, “University of Dundee, Small-Polar-MMV Screening Library” (2021)
